Measurements reported in patent publication US20240300905A1, “Quinazoline Compounds and Uses” (Prosetta Biosciences, Inc., priority 2023, published 2024).

Columns and labels:
Assay type in all cases: cell-based
Hennes-20 cells = assay: Hennes-20 oncology screen (low vs high plating density, alamar Blue); details: 72 h, Hennes-20 cells, 72 hours compound incubation, alamar Blue; read-out: EC50
Experimental: All compounds mentioned as active were tested in Hennes. Select hits from the Hennes screen were sent for additional anti-cancer testing.
To screen compounds for oncology activity Hennes-20 cells were plated at low (500 cells/well) versus high (15,000 cells/well) densities and treated with DMSO (vehicle) or dose-titration of compounds. The rationale for this screen is that an intrinsically toxic compound should kill cells regardless of density, including in Hennes-20 cells. However, a compound that selectively triggers the arrest of proliferation will inhibit cell growth when plated at a low density will appear cytotoxic due to inhibition of cell growth when plated at a low density but will appear non-toxic to cells plated at a high density where the cells are approaching confluence and the readout detected by a cell viability assay is already close to the maximum.
To conduct the Hennes-20 screen, two 96 well plates were seeded with Hennes 20 cells in parallel where one was plated at a density of 500 cells/well and the other was plated at a density of 15,000 cells/well. 90 uL of minimum essential media was added to each well and plates were placed in a 37 degrees Celsius incubator for 24 hours. The next day, 10 ul of media containing dilutions of compound in DMSO were added to each plate. Six wells on each plate received 10 ul of media containing only DMSO. Each well was gently mixed 5 times with a 100 ul pipette. Plates were incubated at 37 degrees Celsius for 72 hours then 10 uL of alamar Blue was added to each well. Wells were mixed 5 times then incubated at 37 degrees Celsius for […]. Plates were then read at 530/590.
The rationale for the screen is as follows: Hennes-20 cells lack endogenous apoptosis. Cells plated at low density will proliferate and approach confluence in 72 hrs. A drug that arrests proliferation may have its proliferation blocking effect masked by the triggering of endogenous apoptosis. However, in the Hennes line, lacking endogenous apoptosis, such an arrest is manifest as a dose-dependent maintenance at low cell density. Since the high-density cells are plated close to confluence, the difference between Alamar Blue cell survival readings after 72 hrs reflects the ability of the drug to block proliferation in the low density-plated cells. In the high density-plated cells any diminution of Alamar Blue readout vs vehicle control is due to intrinsic toxicity, not proliferation arrest, since cells were already at confluence. Thus, a compound that appears toxic (low Alamar Blue readings after 72 hrs) on the low-density plate, but which appears non-toxic (high Alamar Blue readings after 72 hrs) on the high-density plate, must be arresting proliferation, since intrinsic compound toxicity should be observed at both low and high cell densities, not selectively on the low-density plate.

plasmodium = assay: Malaria screen (SYBR green fluorescence, plasmodium parasitemia culture); details: 0.5% plasmodium parasitemia culture, 48 hours
Experimental: Compound was added to a 0.5% plasmodium parasitemia culture for 48 hours, then treated with SYBR green (a dye with marked fluorescence enhancement upon contact with plasmodium DNA) and the fluorescence was measured in drug treated versus untreated cells to determine inhibitory effects (Smilkstein, et al., “Simple and inexpensive fluorescence-based technique for high-throughput antimalarial drug screening,” Antimicrob Agents Chemother, 2004 May; 48(5):1803-6. doi: 10.1128/AAC.48.5.1803-1806.2004. PMID: 15105138: PMCID: PMC400546).

NL4-3 Rluc virus = assay: HIV screen (NL4-3 Rluc virus in MT-2 cells, luciferase readout); details: Human immunodeficiency virus 1, NL43, MT2, 96 h
Experimental: MT-2 cells were preseeded in 96-well plates in 100 uL of complete RPMI. Multiple concentrations of PAV-951 were serially diluted in DMSO then into an infection media prepared by diluting NL4-3 Rluc virus stock to 400 IU/100 uL with complete RPMI, which was transferred onto the MT-2 cells with a final MOI of 0.02 and final DMSO concentration of 1% in infected places. One well received DMSO only, instead of PAV-951, and one well received medium only for normalization and background collection. Cells were incubated at 37 degrees Celsius for 96 hours. 100 ul of medium was removed and discarded and 10 uL of 15 uM EnduRen luciferase substrate was added to each well, followed by incubation for 1.5 hours at 37 degrees Celsius. Plates were read on a luminescence plate reader. Bioluminescence intensity was read on a Synergy H1 BioTek plate reader. Averages and standard deviation for viral titer observed under different treatment conditions were calculated in Microsoft Excel and graphed as the percent inhibition in PAV-951 treated cells compared to untreated cells.

With c1cncc(CCNc2ncnc3cc(N4CCN(c5ccc6c(NCCc7cccnc7)ncnc6c5)CC4)ccc23)c1 [Compound 41] the EC50 (Hennes-20 cells) was < 12500 nM and the EC50 (plasmodium) was 0.06 µM.
For Cn1cccc1CCNc1ncnc2cc(N3CCN(c4ccc5c(NCCc6cccn6C)ncnc5c4)CC3)ccc12 [Compound 5], the EC50 (Hennes-20 cells) was < 2500 nM, the EC50 (NL4-3 Rluc virus) was 190 nM and the EC50 (plasmodium) was 0.031 µM.
For CC(C)CCNc1ncnc2cc(N3CCN(c4ccc5c(NCCC6CCNCC6)ncnc5c4)CC3)ccc12 [Compound 36], the EC50 (Hennes-20 cells) was < 12500 nM and the EC50 (plasmodium) was 0.76 µM.
CC(C)CCNc1ncnc2cc(N3CCN(c4ccc5c(NCCC(C)C)ncnc5c4)CC3)ccc12 [Compound 6] was tested, and the EC50 (Hennes-20 cells) was < 500 nM, the EC50 (NL4-3 Rluc virus) was 340 nM and the EC50 (plasmodium) was 0.024 µM.
With CC(C)CCNc1ncnc2cc(N3CCN(c4ccc5c(NCCc6ccccc6)ncnc5c4)CC3)ccc12 [Compound 11] the EC50 (Hennes-20 cells) was < 100 nM and the EC50 (plasmodium) was 0.032 µM.
With c1ccc(CCNc2ncnc3cc(N4CCN(c5ccc6c(NCCc7ccccc7)ncnc6c5)CC4)ccc23)cc1 [Compound 1] the EC50 (Hennes-20 cells) was < 500 nM and the EC50 (plasmodium) was 0.036 µM.
In the case of Clc1ccc2c(N3CCN(c4ncnc5cc(Cl)ccc45)CC3)ncnc2c1 [Compound 46], the EC50 (NL4-3 Rluc virus) is reported as 510 nM and the EC50 (plasmodium) is reported as > 10 µM.
c1cc(CCNc2ncnc3cc(N4CCN(c5ccc6c(NCCc7ccncc7)ncnc6c5)CC4)ccc23)ccn1 [Compound 33] was tested, and the EC50 (Hennes-20 cells) was < 12500 nM and the EC50 (plasmodium) was 0.03 µM.
With c1ccc(CCNc2ncnc3cc(N4CCN(c5ccc6c(NCCc7ccccn7)ncnc6c5)CC4)ccc23)nc1 [Compound 40] the EC50 (Hennes-20 cells) was < 12500 nM and the EC50 (plasmodium) was 0.091 µM.
